# Experimental data: patent US10975119B2, “Selective cysteine protease inhibitors and uses thereof” (Genesis Technologies Limited, priority 2011, dated 2021)
# Where a name gives a salt, the structure may show the parent alone. Read-outs that look alike come from different tables or passages of the source.
# Legend:
# Format in all cases: biochemical
# Caspase-8 = molecular target: T1, Caspase-8 (Homo sapiens, UniProt Q14790); assay: Caspase-8 inhibitor screening assay (BioVision kit, IETD-AFC); details: for inhibition at 10 µM: read-out: % Inhibition at 10 uM Casp8; for inhibition at 100 µM: read-out: % Inhibition at 100 uM Casp8
# T1 construct: mixing the compounds with the respective active caspases; purchased BioVision K158-100
# T1 sequence (Q14790 217-374 limits assumed): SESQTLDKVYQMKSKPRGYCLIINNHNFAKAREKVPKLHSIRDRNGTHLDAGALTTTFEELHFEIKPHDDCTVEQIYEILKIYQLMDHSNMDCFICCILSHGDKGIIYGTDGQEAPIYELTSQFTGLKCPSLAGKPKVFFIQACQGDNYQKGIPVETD
# T1 sequence (Q14790 385-479 limits assumed): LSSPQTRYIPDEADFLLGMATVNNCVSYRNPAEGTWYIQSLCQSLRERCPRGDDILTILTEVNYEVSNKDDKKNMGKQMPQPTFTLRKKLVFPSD
# Outline: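 Each caspase cleaved its own AFC-labelled peptide substrate, and released AFC was read by fluorescence. % inhibition came from RFU against an uninhibited control.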
# Caspase-2 = molecular target: T2, Caspase-2 (Homo sapiens, UniProt P42575); assay: Caspase-2 inhibitor screening assay (BioVision kit, VDVAD-AFC); details: for inhibition at 10 µM: read-out: % Inhibition at 10 uM Casp2; for inhibition at 100 µM: read-out: % Inhibition at 100 uM Casp2; for IC50: read-out: IC50 Casp2
# T2 construct: mixing the compounds with the respective active caspases; purchased BioVision K152-100
# T2 sequence (P42575 170-325 limits assumed): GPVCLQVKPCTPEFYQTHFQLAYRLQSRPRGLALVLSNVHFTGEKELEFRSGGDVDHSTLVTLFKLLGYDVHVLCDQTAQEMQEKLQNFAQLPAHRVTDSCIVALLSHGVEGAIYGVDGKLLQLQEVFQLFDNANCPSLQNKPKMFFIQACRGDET
# T2 sequence (P42575 334-452 limits assumed): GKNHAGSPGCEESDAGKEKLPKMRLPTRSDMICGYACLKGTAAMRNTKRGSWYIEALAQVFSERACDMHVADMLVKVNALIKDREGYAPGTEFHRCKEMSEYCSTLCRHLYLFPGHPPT
# Method: The efficacy of an array of compounds as an inhibitor of the activity of Caspases 1 through 10 were assessed by using the respective Caspase Inhibitor Drug Screening Kits (Caspase-1 Catalog #: K151-100, Caspase-2 Catalog #: K152-100, Caspase-3 Catalog #: K153-100, Caspase-4 Catalog #: K154-100, Caspase-5 Catalog #: K155-100, Caspase-6 Catalog #: K156-100, Caspase-7 Catalog #: K157-100, Caspase-8 Catalog #: K158-100, Caspase-9 Catalog #: K159-100, Caspase-10 Catalog #: K160-100, BioVision) following the instructions of the manufacturer. […] Active caspases cleaved their respective synthetic substrates to release free AFC, which was then quantified by fluorometry.
# Briefly, the compounds were first tested at 2 concentrations (10 uM and 100 uM final) to determine if there is a hit. […] Each condition was tested in duplicates. […] For some samples, a smaller range of concentrations was tested depending on the % Inhibition results at 10 uM and 100 uM. Results were summarized in Tables 2, 3, and 4 herein after. Table 2 represents the IC50 values (uM) of the test compounds as inhibitors of the activity of the various caspases.
# (*) RFU (no inhibitor control)—RFU (compound at a specific concentration)
# RFU (no inhibitor control)
# Caspase-4 = molecular target: T3, Caspase-4 (Homo sapiens, UniProt P49662); assay: Caspase-4 inhibitor screening assay (BioVision kit, LEVD-AFC); details: for inhibition at 10 µM: read-out: % Inhibition at 10 uM Casp4; for inhibition at 100 µM: read-out: % Inhibition at 100 uM Casp4
# T3 construct: mixing the compounds with the respective active caspases; purchased BioVision K154-100
# T3 sequence (P49662 81-270 limits assumed): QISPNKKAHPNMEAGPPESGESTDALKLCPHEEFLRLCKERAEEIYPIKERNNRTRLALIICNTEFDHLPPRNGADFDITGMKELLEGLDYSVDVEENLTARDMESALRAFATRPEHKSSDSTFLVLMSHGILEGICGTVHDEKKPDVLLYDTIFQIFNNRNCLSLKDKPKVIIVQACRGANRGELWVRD
# T3 sequence (P49662 290-377 limits assumed): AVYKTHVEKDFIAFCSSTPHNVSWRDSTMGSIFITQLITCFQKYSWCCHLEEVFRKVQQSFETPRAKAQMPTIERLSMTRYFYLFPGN
# Outline: (§1)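 Fluorometric read-out of free AFC released from the caspase-specific synthetic substrate. IC50 from concentration series, sometimes narrower.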
# Caspase-10 = molecular target: T4, Caspase-10 (Homo sapiens, UniProt Q92851); assay: Caspase-10 inhibitor screening assay (BioVision kit, AEVD-AFC); details: for inhibition at 10 µM: read-out: % Inhibition at 10 uM Casp10; for inhibition at 100 µM: read-out: % Inhibition at 100 uM Casp10
# T4 construct: mixing the compounds with the respective active caspases; purchased BioVision K160-100
# T4 sequence (Q92851 220-415 limits assumed): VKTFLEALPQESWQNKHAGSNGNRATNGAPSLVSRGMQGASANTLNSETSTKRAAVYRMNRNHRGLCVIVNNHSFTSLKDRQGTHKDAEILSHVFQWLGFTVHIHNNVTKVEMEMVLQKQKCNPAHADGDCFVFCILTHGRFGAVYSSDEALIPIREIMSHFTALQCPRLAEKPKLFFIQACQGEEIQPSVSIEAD
# T4 sequence (Q92851 416-521 limits assumed): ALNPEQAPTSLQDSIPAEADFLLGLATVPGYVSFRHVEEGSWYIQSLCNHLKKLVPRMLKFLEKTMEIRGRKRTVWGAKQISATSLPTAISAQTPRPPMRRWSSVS
# Outline: as §1
# Caspase-7 = molecular target: T5, Caspase-7 (Homo sapiens, UniProt P55210); assay: Caspase-7 inhibitor screening assay (BioVision kit, DEVD-AFC); details: for inhibition at 10 µM: read-out: % Inhibition at 10 uM Casp7; for inhibition at 100 µM: read-out: % Inhibition at 100 uM Casp7; for IC50: read-out: IC50 Casp7
# T5 construct: mixing the compounds with the respective active caspases; purchased BioVision K157-100
# T5 sequence (P55210 24-198 limits assumed): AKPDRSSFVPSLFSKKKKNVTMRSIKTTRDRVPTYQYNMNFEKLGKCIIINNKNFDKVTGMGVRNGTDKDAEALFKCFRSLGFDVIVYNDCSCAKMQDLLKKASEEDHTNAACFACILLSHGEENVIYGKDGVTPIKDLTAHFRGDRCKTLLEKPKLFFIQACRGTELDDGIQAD
# T5 sequence (P55210 207-303 limits assumed): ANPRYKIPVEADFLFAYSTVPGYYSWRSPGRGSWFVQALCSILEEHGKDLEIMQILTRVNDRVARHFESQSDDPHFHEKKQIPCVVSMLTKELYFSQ
# Outline: as §1
# Caspase-3 = molecular target: T6, Caspase-3 (Homo sapiens, UniProt P42574); assay: Caspase-3 inhibitor screening assay (BioVision kit, DEVD-AFC); details: for inhibition at 10 µM: read-out: % Inhibition at 10 uM Casp3; for inhibition at 100 µM: read-out: % Inhibition at 100 uM Casp3; for IC50: read-out: IC50 Casp3
# T6 construct: mixing the compounds with the respective active caspases; purchased BioVision K153-100
# T6 sequence (P42574 29-175 limits assumed): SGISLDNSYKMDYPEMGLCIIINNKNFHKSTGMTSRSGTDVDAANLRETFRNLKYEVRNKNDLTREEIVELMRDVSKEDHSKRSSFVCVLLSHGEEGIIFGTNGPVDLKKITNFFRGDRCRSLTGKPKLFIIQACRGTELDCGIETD
# T6 sequence (P42574 176-277 limits assumed): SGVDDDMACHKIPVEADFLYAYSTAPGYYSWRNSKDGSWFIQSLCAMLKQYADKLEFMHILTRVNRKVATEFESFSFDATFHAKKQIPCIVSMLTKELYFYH
# Outline: as §1
Structure (SMILES),inhibition at 10 µM (Caspase-8; 10 uM),inhibition at 100 µM (Caspase-8; 100 uM),IC50 (Caspase-8; read-out: IC50 Casp8),inhibition at 10 µM (Caspase-2),inhibition at 100 µM (Caspase-2),inhibition at 10 µM (Caspase-4),inhibition at 100 µM (Caspase-4),IC50 (Caspase-4; read-out: IC50 Casp4),inhibition at 10 µM (Caspase-10),inhibition at 100 µM (Caspase-10; 100 uM),IC50 (Caspase-10; read-out: IC50 Casp10),inhibition at 10 µM (Caspase-7; 10 uM),inhibition at 100 µM (Caspase-7; 100 uM),inhibition at 10 µM (Caspase-3),inhibition at 100 µM (Caspase-3),IC50 (Caspase-3),IC50 (Caspase-2),IC50 (Caspase-7),further results
"CS(=O)(=O)/C(Cl)=C/[C@@H](N)CC(=O)O [Compound 4, Asp achlorovinyl methyl vinyl sulfone, Tosyl Salt]",–,–,> 100 µM,0%,0%,0%,0%,> 100 µM,36%,43%,> 100 µM,–,–,4%,7%,> 100 µM,> 100 µM,> 100 µM,inhibition at 10 µM (Caspase-8): 6%; inhibition at 100 µM (Caspase-8): 13%; inhibition at 10 µM (Caspase-7): 0%; inhibition at 100 µM (Caspase-7): 0%
"CS(=O)(=O)/C=C/[C@H](CC(=O)O)NC(=O)[C@H]1CCC(=O)N1 [Compound 24, (2-Pyrrolidinone-5-carbonyl)-Asp methyl vinyl sulfone]",0%,0%,> 100 µM,0%,0%,1%,0%,> 100 µM,21%,15%,> 100 µM,1%,0%,0%,0%,> 100 µM,> 100 µM,> 100 µM,–
"CCOC(=O)/C=C/[C@H](CC(=O)O)NC(=O)[C@H]1CCCN1C(=O)[C@@H](NC(=O)c1ccc2ccccc2n1)C(C)(C)C [Compound 118, 2-Quinoline carbonyl-t-Leu-Pro-Asp Ethyl Vinyl Ester]",36%,89%,21.1 µM,4%,10%,100%,100%,0.6 µM,59%,97%,8.05 µM,3%,8%,0%,15%,> 100 µM,> 100 µM,> 100 µM,–
"CCOC(=O)/C=C/[C@H](CC(=O)O)NC(=O)[C@H]1CCCN1C(=O)[C@@H](NC(=O)c1ccc(N)c(Cl)c1)C(C)(C)C [Compound 116, (4-amino-3-chlorobenzene carbonyl)-t-Leu-Pro-Asp Ethyl vinyl ester]",–,–,0.6 µM,–,–,–,–,0.03 µM,–,–,0.55 µM,–,–,–,–,33.4 µM,> 100 µM,3.6 µM,–

# The next lines start with results.
inhibition at 10 µM (Caspase-8; 10 uM),inhibition at 100 µM (Caspase-8; 100 uM),IC50 (Caspase-8; read-out: IC50 Casp8),inhibition at 10 µM (Caspase-2),inhibition at 100 µM (Caspase-2),inhibition at 10 µM (Caspase-4),inhibition at 100 µM (Caspase-4),IC50 (Caspase-4; read-out: IC50 Casp4),inhibition at 10 µM (Caspase-10),inhibition at 100 µM (Caspase-10; 100 uM),IC50 (Caspase-10; read-out: IC50 Casp10),inhibition at 10 µM (Caspase-7; 10 uM),inhibition at 100 µM (Caspase-7; 100 uM),inhibition at 10 µM (Caspase-3),inhibition at 100 µM (Caspase-3),IC50 (Caspase-3),IC50 (Caspase-2),IC50 (Caspase-7),Structure (SMILES),further results
97%,100%,0.66 µM,2%,4%,100%,100%,0.375 µM,100%,100%,0.13 µM,0%,31%,63%,89%,6.96 µM,–,–,"CCC(C)[C@H](NC(=O)[C@H](CCC(=O)O)NC(=O)[C@@H](NC(=O)OCc1ccccc1)C(C)C)C(=O)N[C@H](/C=C/S(C)(=O)=O)CC(=O)O (stereo partly drawn) [Compound 38, Z-Val-Glu-Ile-Asp-methyl vinyl sulfone]",–
2%,49%,> 100 µM,0%,0%,0%,6%,> 100 µM,0%,48%,> 100 µM,3%,60%,1%,39%,> 100 µM,> 100 µM,64.4 µM,"CC(C)[C@H](NC(=O)OCc1ccccc1)C(=O)N[C@H](/C=C(\Cl)S(C)(=O)=O)CC(=O)O [Compound 2, Cbz-Val-Asp achlorovinyl methyl vinyl sulfone]",% Inhibition at 100 uM Casp8 (Caspase-8; 100 uM): 33%; % Inhibition at 100 uM Casp10 (Caspase-10; 100 uM): 31%; % Inhibition at 100 uM Casp7 (Caspase-7; 100 uM): 72%
0%,22%,> 100 µM,2%,10%,99%,100%,1.55 µM,3%,74%,56 µM,0%,2%,1%,1%,> 100 µM,> 100 µM,> 100 µM,"CC(C)(C)[C@H](NC(=O)c1ccc2ccccc2n1)C(=O)N1CCC[C@@H]1C(=O)N[C@H](/C=C/S(C)(=O)=O)CC(=O)O [Compound 6, 2-Quinoline carbonyl-t-Leu-pro-Asp methyl vinyl sulfone]",IC50 (Caspase-4; read-out: potency (IC50) against caspase-4): 1.55 µM
–,–,0.08 µM,–,–,–,–,0.77 µM,–,–,–,–,–,–,–,2.78 µM,> 100 µM,> 100 µM,"CCOC(=O)/C=C/[C@H](CC(=O)O)NC(=O)[C@@H](NC(=O)[C@H](CCC(=O)O)NC(=O)[C@@H](NC(=O)OCc1ccccc1)C(C)C)c1ccccc1 [Compound 126, Z-Val-Glu-Phg-Asp-Ethyl Vinyl ester]",IC50 (Caspase-8; read-out: potency (IC50) against caspase-8): 0.079 µM; IC50 (Caspase-10; read-out: potency (IC50) against caspase-10): 0.002 µM
